From publication PMC10135567, “New Indole-3-Propionic Acid and 5-Methoxy-Indole Carboxylic Acid Derived Hydrazone Hybrids as Multifunctional Neuroprotectors” (Antioxidants, 2023)

Assays:
[1] = test system: isolated rat-brain synaptosomes; assay: 6-OHDA-induced neurotoxicity in isolated rat synaptosomes, GSH level; format: cell-based; conditions: 10 µM pre-incubation 30 min, then 150 µM 6-OHDA 1 h
Protocol: (§1) This neurotoxicity model was based on the metabolism and auto-oxidation of 6-hydroxy dopamine responsible for the reactive oxygen species and quinones generation, ultimately leading to neurotoxicity and neurodegeneration. The experiment was performed by pre-incubation of the synaptosomes with 10 µM of the compounds for 30 min, followed by the addition of 150 µM 6-hydroxy dopamine for induction of neurotoxicity. After 1 h, they were centrifuged twice for 1 min at 15,000 × g. After the second wash, the precipitates were resolved with buffer B and glucose.

[2] = MTT cell viability assay (cytotoxicity), SH-SY5Y; conditions: human, SH-SY5Y neuroblastoma cells
Protocol: Neuroblastoma cell line SH-SY5Y (94030304) was acquired from the European Collection of Cell Cultures (ECACC, Salisbury, UK). Cells were cultured in a medium prepared with RPMI basic media supplemented with 10% heat-inactivated FBS (fetal bovine serum), 2 mM L-glutamine, 1% antibiotics (penicillin/streptomycin), and incubated at 37 °C in a humidified atmosphere containing 5% of CO2. The culture’s medium was replaced at a time interval of 2–3 days.
(§2) Cell viability was assessed via the mitochondrial reductase-dependent reaction of (3-(4,5-dimethylthiazol-2-yl)- 2,5-diphenyl tetrazolium bromide (MTT, cat. no. 475989, Calbiochem, Merck KGaA, Darmstadt, Germany). The SH-SY5Y and bEnd3 cell lines were seeded in 96-well plates at a density of 0.7 × 10^4 (bEnd3) or 2 × 10^4 (SH-SY5Y) cells/well and allowed to adhere for 24 h at 37 °C, 5% CO2. Then, the cells were incubated with the compounds (1–500 μM) for a preset time (24 h). For the solvent, the control cells were treated with DMSO corresponding to the highest concentration of DMSO in the samples (0.5% DMSO) in order to exclude its cytotoxic effect on the cells. For each concentration, a set of at least 6 wells were used. After incubation, the solution from each well was exchanged with fresh culture medium (100 µL/well), containing the MTT reagent (0.5 mg/mL) and incubated for 3 h at 37 °C in a humidified atmosphere and 5% CO2. The obtained formazan crystals were dissolved in 100 µL/well of 5% formic acid in propan-2-ol solution (or DMSO). The absorbance was measured at 570 nm via multiplate reader Tecan Infinite F200 PRO (Tecan Trading AG., Männedorf, Switzerland) or Synergy 2 (BioTek Instruments, Inc., Highland Park, Winooski, VT, USA).
(§3) Both the SH-SY5Y and bEnd3 cells were treated with the test compounds in a concentration range from 1 to 500 µM for 24 h.

[3] = test system: isolated rat-brain synaptosomes; assay: 6-OHDA-induced neurotoxicity in isolated rat synaptosomes, synaptosomal viability; format: cell-based; conditions: Rattus norvegicus; 10 µM pre-incubation 30 min, then 150 µM 6-OHDA 1 h; read-out: synaptosomal viability (SV) preserved, as compared to 6-OHDA
Protocol: as §1

[4] = test system: isolated rat-brain synaptosomes; assay: Synaptosomal viability (MTT), substances administered alone; conditions: 100 µM
Protocol: Preparation of the synaptosomes was carried out by multiple centrifugations using the Percoll gradient. Homogenization of the brains was performed in 10 volumes of cold buffer 1, which contained 5 mM HEPES and 0.32 M sucrose (pH = 7.4), followed by centrifugation at different speeds. For preparation of the gradient, the synaptosomes were isolated by Percoll reagent. Synaptosomes were resuspended and incubated in buffer 2, which contained 290 mM NaCl, 0.95 mM MgCl2x6H2O, 10 mM KCl, 2.4 mM CaCl2xH2O, 2.1 mM NaH2PO4, 44 mM HEPES, and 13 mM D-glucose. Incubations were performed in a 5% CO2 + 95% O2 atmosphere. The method of Lowry et al., using bovine serum albumin as a standard content, was applied for determination of synaptosomal protein [51].
Synaptosomal viability was monitored based on a (3-(4,5)-dimethylthiazol-2-yl)-2,5-diphenyl tetrazolium bromide) assay. After incubation with the compounds, synaptosomes were treated with 0.5 mg/mL solution of (3-(4,5)-dimethylthiazol-2-yl)-2,5-diphenyl tetrazolium bromide) for 10 min at […]. Then, the synaptosomes were centrifuged twice at 15,000× g for 1 min. The resulting formazan crystals were dissolved in DMSO (dimethyl sulfoxide), and the extinction was determined by spectrophotometric measurements at 580–660 nm. […]

[5] = O-phenanthroline Fe(II) chelation test; format: physicochemical; conditions: 200 µM compound, FeCl2
Protocol: The Fe (II)-chelating activity of the tested hydrazones was determined by the O-phenanthroline method. A total of 1 mL sample solutions of 50 mM PB pH 7 contained 0.2 mM O-phenanthroline and 0.05 mM FeCl2 and 0.2 mM hydrazone. In the controls, the tested compounds were omitted. Absorbance was measured at 515 nm via GENESYS 50 UV-VIS spectrophotometer after incubation for 5 min at 37 °C. The data for the sample activity were presented as a percentage of the control measurement. Absorbance spectra of all the samples, the control, and the measurement compositions containing the tested hydrazones and Fe(II) at the concentrations used in the samples were measured.
To explain the results of both systems of Fe(II)-induced oxidative damage, we studied the potency of the tested compounds to chelate-iron (Fe(II)). This was studied by spectrophotometric determination of free iron (Fe(II)) using the ortho-phenanthroline test, as 1,10-phenantroline reacts rapidly with Fe(II) ions in weakly acidic media, generating an orange–red complex (ferroin) with characteristic absorbance spectra (molar absorptivity 1.10.104 (α = 0.20) at ~max 512 nm and a molar ratio 3:1 (R: Fe(II))). The generated complex was stable, and the bound Fe(II) was resistant to oxidation. Lower absorbance of the reaction mixture indicated higher Fe^2+-chelating activity.

[6] = Superoxide radical scavenging, xanthine/xanthine oxidase/NBT system; format: biochemical
Protocol: The 1 mL cuvette for the control contained 1 mM xanthine, 20 µL xanthine oxidase (100 IU/L), and 0.04 mM NBT [43, 44]. In the sample compositions, the tested hydrazones at different concentrations were added. All measurement compositions were incubated at 37 °C, and the absorbance was determined spectrophotometrically at 560 nm via Shimadzu UV-1601 UV-vis spectrophotometer.
The potential capability of the investigated compounds to prevent the superoxide-anion radical-induced NBT reduction was investigated spectrophotometrically by xanthine-oxidase assay. The assay was carried out at the final concentration of the tested compounds, at 1, 10, 50, and 100 µM.

[7] = target: T1, recombinant human MAO-B (hMAO-B) (Homo sapiens, UniProt P27338); assay: hMAO-B enzyme activity inhibition (Amplex Red fluorimetric assay); format: biochemical; conditions: 1 µM
T1 sequence (P27338 1-520): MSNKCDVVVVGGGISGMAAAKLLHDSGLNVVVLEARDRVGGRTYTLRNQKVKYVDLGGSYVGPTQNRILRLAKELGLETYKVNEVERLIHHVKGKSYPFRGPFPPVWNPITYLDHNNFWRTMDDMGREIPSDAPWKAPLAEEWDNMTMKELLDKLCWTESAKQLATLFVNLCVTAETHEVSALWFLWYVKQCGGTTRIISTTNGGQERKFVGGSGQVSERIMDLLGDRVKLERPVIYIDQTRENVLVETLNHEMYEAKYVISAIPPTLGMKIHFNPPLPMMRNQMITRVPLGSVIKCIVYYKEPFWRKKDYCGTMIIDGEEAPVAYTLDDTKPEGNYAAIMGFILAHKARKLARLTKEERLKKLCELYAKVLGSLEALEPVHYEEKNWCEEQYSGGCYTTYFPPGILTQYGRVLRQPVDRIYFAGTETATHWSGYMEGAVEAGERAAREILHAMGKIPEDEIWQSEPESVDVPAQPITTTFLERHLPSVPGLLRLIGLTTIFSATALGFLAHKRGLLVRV
Protocol: Amplex® UltraRed reagent [48] was used for detection of the hydrogen peroxide and peroxidase activity in biological samples and enzymes. In the presence of peroxidase, a red phosphorescent oxidation product, resorufin, was produced due to the 1:1 stoichiometric reaction of Amplex® Red with hydrogen peroxide. The analysis was conducted spectrophotometrically based on the high extinction coefficient of the color product. Using this method, small amounts of hydrogen peroxide (of the order of 10 pM in a volume of 100 µL) could be detected.
The following controls were used: pure MAO-B working solution in reaction buffer, MAO-B working solution containing hydrogen peroxide, and pure reaction buffer. The final concentration of the substances was 1 µM. […] At the end of the incubation period, the reaction was started by adding a 50 µL of a mix solution containing solutions of Amplex® Red reagent, horseradish peroxidase (HRP), and tyramine as a substrate for the enzyme in a reaction buffer, to each well on the 96-well plate.

[8] = Fe(II)-induced lipid peroxidation assay (LP assay, TBARS); format: biochemical; conditions: 90 µM, lecithin 1 mg/mL, 0.1 mM FeCl2; lower = stronger antioxidant
Protocol: (§4) The lipid peroxidation assay and a modification of the deoxyribose-degradation assay were used. Two types of measurement compositions in phosphate buffer (PB–K2HPO4/KH2PO4, pH 7.4) were prepared for both tests: (i) samples, containing the biologically relevant molecules (lecithin emulsion or deoxyribose), iron, and the tested hydrazones at the concentrations indicated below the figures; and (ii) controls, in which the tested hydrazones were omitted. The data for the sample activity were presented as a percentage of the control measurement.
The thiobarbituric-acid reactive-substance colorimetric test was performed in a model system of Fe(II)-induced lipid peroxidation as an emulsion prepared from egg yolk phospholipids. Each sample contained 1 mg/mL of lecithin. LP was initiated using 0.1 mM FeCl2. After 30 min incubation at 37 °C, 0.5 mL of 2.8% trichloroacetic acid solution and 0.5 mL of 0.5% thiobarbituric acid solution were added, following a second incubation at 100 °C for 20 min. Centrifugation at 3000 rpm for 20 min at 4 °C was performed, and we determined the absorbance value of the supernatant at 532 nm via Shimadzu UV-1601 UV-VIS spectrophotometer.

red blood cells = assay: Red blood cell hemolysis assay; format: cell-based, rat; conditions: positive control, 20% Triton X-100, 1 h, 37 °C
Protocol: The potential of the test compounds to induce hemolysis was evaluated following the protocol described by Evans et al.. The blood was collected from the heart of male Wister rats. The red blood cells were separated from the blood by repeated centrifugation in 0.9% NaCl buffer and were resuspended in phosphate-buffered saline (PBS, pH 7.4). The test compounds in concentrations 10, 100, and 200 µM, a negative control (distilled water), and a positive control (20% Triton X-100) were pipetted into 96-well plates. Then, the erythrocyte suspension in PBS was added, and the plates were incubated for 1 h at 37 °C. After centrifugation (5 min at 500× g), the supernatant was transferred to new 96-well plates in order to measure hemoglobin absorbance at 430 nm on a Synergy 2 plate-reader (BioTek Instruments, Inc., Highland Park, Winooski, VT, USA). The obtained results were presented as a percentage of hemolysis relative to the hemoglobin absorbance values in the positive controls. Hemoglobin absorbance of negative controls was accepted as zero hemolysis. […]
Hemolysis assay, using red blood cells, is an essential part of the in vitro biocompatibility testing of new drug substances; and it was used as a screening method for the evaluation of potential in vivo toxicity. The release of hemoglobin was a definite sign of the cell lysis of the erythrocytes and could be measured spectrophotometrically. […]

[9] = MTT cell viability assay (cytotoxicity), bEnd3; format: cell-based, mouse; conditions: mouse, bEnd3 brain endothelial cells, 1–500 µM
Protocol: Mouse-brain endothelial cell line bEnd3 [36] (CRL-2299) was purchased from the American Type Culture Collection (ATCC, Manassas, VA, USA). The cells were cultured in DMEM (Dulbeco’s modified essential medium) (cat. no. 30-2002, ATCC, Manassas, VA, USA), supplemented with 10% heat-inactivated FBS (cat. no. F7524, Sigma-Aldrich Co. LLC, St. Louis, MO, USA), 1 mM L-glutamine (cat. no. G7513, Sigma-Aldrich Co. LLC, St. Louis, MO, USA) and 1× Antibiotic-Antimycotic solution (penicillin: streptomycin: amphotericin B (100 U/mL: 0.10 mg/mL: 0.25 µg/mL) (cat. no. A5955, Sigma-Aldrich Co. LLC, St. Louis, MO, USA) at 37 °C in a humidified atmosphere containing 5% CO2. The cells were passaged in 75 cm^2 flasks every 3–5 days via trypsinization (StableCell Trypsin solution, cat. no. T2610, Sigma-Aldrich Co. LLC, St. Louis, MO, USA).
as §2, §3

[10] = Fe(II)-induced deoxyribose degradation assay; format: biochemical; conditions: 80 µM, 2-deoxyribose 0.5 mM, 0.1 mM FeCl2; lower = stronger antioxidant
Protocol: as §4
The deoxyribose (0.5 mM) damage was induced by adding FeCl2 (0.1 mM). The measurement compositions were incubated at 37 °C for 30 min. The next step comprised adding 0.5 mL of 2.8% trichloroacetic acid and 0.5 mL of thiobarbituric acid. Then, the samples were heated in boiling water for 20 min, and their absorbance was estimated at 532 nm (characteristic band for the generated chromophore) via Shimadzu UV-1601 UV-vis spectrophotometer.

[11] = Stability by UV-vis measurements at different pH; format: physicochemical; conditions: 50 µM, pH 2, 4.5, 7.4 and 8.4, after 1, 2, 3 and 24 h
Protocol: The stability of the compounds was also considered a potential issue. Therefore, selected compounds (3a, 3d, 5d, and 5e at a concentration of 50 µM) were studied by UV-vis measurements under different pH conditions, including pH 2, 4.5, 7.4, and 8.4, to represent different physiological (gastric, intestinal, etc.) conditions.

Molecule | GSH level preserved, as compared to 6-OHDA [1] | IC50 at 24 h [2] | viability at 10 µM [3] | reduction of synaptosomal viability (SV) vs. non-treated synaptosomes [4] | absorbance at 515 nm compared to the controls (Fe(II) chelation) [5] | absorbance ratio (NBT reduction, % of control) ([6]; 1, 10, 50 and 100 µM) | reduction of hMAO-B enzyme activity vs. pure hMAO-B [7] | absorbance ratio sample/control (lipid peroxidation) [8] | hemolysis (red blood cells) | IC50 at 24 h [9] | melting point | absorbance ratio, % of the controls (deoxyribose degradation) [10] | decrease of NBT reduction as compared to the controls ([6]; 100 µM (highest tested concentration)) | stability (UV-vis spectra over time) [11]
O=C(O)CCc1c[nH]c2ccccc12 [IPA, Indole-3-propionic acid] | 50% | > 500 µM | 56% | 47% | statistically identical absorbance values at 515 nm, as compared to the controls | did not influence the estimated absorbance ratio at any of the tested concentrations | 25% | further amelioration of the antioxidant properties was not observed, as compared to melatonin |  |  |  |  |  | 
Triton X-100 |  |  |  |  |  |  |  |  | 100% |  |  |  |  | 
O=C(CCc1c[nH]c2ccccc12)NN=Cc1cccc(O)c1O [Compound 3a, N′-(2,3-Dihydroxybenzylidene)-3-(1H-indol-3-yl)propanehydrazide] |  | 120 µM | 44% |  | identical absorbance values, as compared to the controls |  |  | around 30% |  | 356 µM | 204 to 205 °C | around 35% | less than 15% | stable over time
